Experimental data reported in patent publication US20080058890A1, “HOMOTOPIC CO[…] THE BRAIN STEM […] A SUBJECT” (The Penn State Research Foundation, priority 2006, published 2008).

System: NMDA receptor
Conditions: NMB rat; CPP 2.5 mg total i.v. (1.25 mg/ml x 0.2 ml/min x 10 min) infused before tetanus; ERs hours 7-16 post-tetanus vs control

Structure (SMILES): O=C(O)C1CN(CCCP(=O)(O)O)CCN1 (stereo not shown) [CPP, 3-(2-Carboxypiperazin-4-yl)-propyl-1-phosphoric acid]
- effect of a A+C-fiber tetanus on the A-fiber ERs (NTS evoked responses): blocked the effect of a A+C-fiber tetanus on the A-fiber ERs
